SMILES strings stand for the structures. Some results are limits rather than exact numbers.

The subject of the first assay is BMSC (primary human bone marrow mesenchymal stromal cells). In words: absolute EC50 for viability; higher = less sensitive.
In the case of `C[C@@H](Oc1ccc2[nH]nc(/C=C/c3cnn(CCO)c3)c2c1)c1c(Cl)cncc1Cl`, the “absolute EC50 for viability” value is > 1000 nM.
For `CCN1CCN(Cc2ccc(Nc3ncc(F)c(-c4cc(F)c5nc(C)n(C(C)C)c5c4)n3)nc2)CC1` [Abemaciclib], the “absolute EC50 for viability” value is > 2500 nM.
On to `CN(C)C[C@@H]1CCn2cc(c3ccccc32)C2=C(C(=O)NC2=O)c2cn(c3ccccc23)CCO1` [Ruboxistaurin], for which the “absolute EC50 for viability” value turned out to be 2420 nM.
For `COc1cc2c(N3CCN(C(=O)Nc4ccc(OC(C)C)cc4)CC3)ncnc2cc1OCCCN1CCCCC1` [Tandutinib], the “absolute EC50 for viability” value is > 1000 nM.
As for `Nc1ncnc2c1c(COc1cccc(Cl)c1)nn2C1CCOCC1`, the “absolute EC50 for viability” value was > 10000 nM.
For the molecule `Cc1ccc(NS(=O)(=O)c2cccc(C#N)c2)c2[nH]cc(C#N)c12` [E7820], the “absolute EC50 for viability” value is > 50000 nM.
As for `CC(C)(C)Cn1c(N)nc2ccc(-c3[nH]c(C(C)(C)C)nc3-c3ccc(F)cc3)nc21` [Ralimetinib], the “absolute EC50 for viability” value was > 10000 nM.
Take `COc1cc(Nc2ncc(F)c(Nc3ccc4c(n3)N(COP(=O)(O)O)C(=O)C(C)(C)O4)n2)cc(OC)c1OC` [Fostamatinib]: the “absolute EC50 for viability” value is > 2500 nM.
For `CO[C@@H](C(=O)N1Cc2[nH]nc(NC(=O)c3ccc(N4CCN(C)CC4)cc3)c2C1)c1ccccc1` [Danusertib], the “absolute EC50 for viability” value was > 10000 nM.
The same measure, in the same setting: for `COc1cc2ncnc(Nc3ccc(F)c(Cl)c3)c2cc1NC(=O)/C=C/CN1CCCCC1` [Dacomitinib] the value was > 1000 nM; for `C[C@@H]1C=C2C(=O)O[C@@H]3CC[C@H](C1)[C@]23O` [Galiellalactone], > 25000 nM.
For `CN1CC[C@H](c2c(O)cc(O)c3c(=O)cc(-c4ccccc4Cl)oc23)[C@H](O)C1` [Alvocidib], the “absolute EC50 for viability” value was 739 nM.
Same read-out and setting: for `CNC(=O)c1cccc2cc(Oc3ccnc4cc(OCC5(N)CC5)c(OC)cc34)ccc12` [Lucitanib] the value was > 10000 nM; for `C=CC(=O)Nc1cccc(Oc2nc(Nc3ccc(N4CCN(C)CC4)cc3)nc3ccsc23)c1` [Olmutinib], > 1000 nM; for `C[C@H](Nc1ncnc2[nH]cnc12)c1cc2ccc(F)cc2nc1-c1ccccn1` [AMG319], > 1000 nM.
With `Cc1cc([C@@H](C)Nc2ccccc2C(=O)O)c2nc(N3CCOCC3)cc(=O)n2c1` [AZD-6482], the “absolute EC50 for viability” value was > 2500 nM.
On to `Cc1cc2c(F)c(Oc3ncnn4cc(OC[C@@H](C)O)c(C)c34)ccc2[nH]1` [Brivanib], for which the “absolute EC50 for viability” value is > 1000 nM.
As to `O=C(/C=C/c1cccc(S(=O)(=O)Nc2ccccc2)c1)NO` [Belinostat], the “absolute EC50 for viability” value was found to be 2230 nM.
On the same count and under the same terms, then `COc1cc(N2CCN(C)CC2)ccc1Nc1nccc(-c2cn(C)c3cnccc23)n1` [AZ191], with 2710 nM; and `CC(=O)O[C@]1(C(C)=O)CC[C@H]2[C@@H]3C=C(C)C4=CC(=O)CC[C@]4(C)[C@H]3CC[C@@]21C` [Megestrol acetate], with > 10000 nM.
Same read-out and setting: for `C1=N/C2=N/c3ccc(OCCN4CCCC4)c(c3)COC/C=C/COCc3cccc(c3)C(=C1)N2` [Pacritinib] the value was 3670 nM.

Another assay has the same test system. In words: drug sensitivity score (DSS); higher = more sensitive.
`C[C@@H](Oc1ccc2[nH]nc(/C=C/c3cnn(CCO)c3)c2c1)c1c(Cl)cncc1Cl`: the drug sensitivity score was 3.6.
For the molecule `CCN1CCN(Cc2ccc(Nc3ncc(F)c(-c4cc(F)c5nc(C)n(C(C)C)c5c4)n3)nc2)CC1` [Abemaciclib], the drug sensitivity score is 0.
Same read-out and setting: for `CN(C)C[C@@H]1CCn2cc(c3ccccc32)C2=C(C(=O)NC2=O)c2cn(c3ccccc23)CCO1` [Ruboxistaurin] the value was 7; for `COc1cc2c(N3CCN(C(=O)Nc4ccc(OC(C)C)cc4)CC3)ncnc2cc1OCCCN1CCCCC1` [Tandutinib], 2.7.
Same read-out and setting: then `Nc1ncnc2c1c(COc1cccc(Cl)c1)nn2C1CCOCC1`, with 0; and `Cc1ccc(NS(=O)(=O)c2cccc(C#N)c2)c2[nH]cc(C#N)c12` [E7820], with 0; and `CC(C)(C)Cn1c(N)nc2ccc(-c3[nH]c(C(C)(C)C)nc3-c3ccc(F)cc3)nc21` [Ralimetinib], with 0.7.
Consider `COc1cc(Nc2ncc(F)c(Nc3ccc4c(n3)N(COP(=O)(O)O)C(=O)C(C)(C)O4)n2)cc(OC)c1OC` [Fostamatinib], for which the drug sensitivity score worked out at 5.2.
For `CO[C@@H](C(=O)N1Cc2[nH]nc(NC(=O)c3ccc(N4CCN(C)CC4)cc3)c2C1)c1ccccc1` [Danusertib], the drug sensitivity score is 3.6.
On to `COc1cc2ncnc(Nc3ccc(F)c(Cl)c3)c2cc1NC(=O)/C=C/CN1CCCCC1` [Dacomitinib], for which the drug sensitivity score worked out at 2.2.
The molecule `C[C@@H]1C=C2C(=O)O[C@@H]3CC[C@H](C1)[C@]23O` [Galiellalactone] had a drug sensitivity score of 1.3.
`CN1CC[C@H](c2c(O)cc(O)c3c(=O)cc(-c4ccccc4Cl)oc23)[C@H](O)C1` [Alvocidib]: the drug sensitivity score was 10.8.
On the same count and under the same terms, for `CNC(=O)c1cccc2cc(Oc3ccnc4cc(OCC5(N)CC5)c(OC)cc34)ccc12` [Lucitanib] the value was 9; for `C=CC(=O)Nc1cccc(Oc2nc(Nc3ccc(N4CCN(C)CC4)cc3)nc3ccsc23)c1` [Olmutinib], 0.
Take `C[C@H](Nc1ncnc2[nH]cnc12)c1cc2ccc(F)cc2nc1-c1ccccn1` [AMG319]: the drug sensitivity score came to 0.1.
Regarding `Cc1cc([C@@H](C)Nc2ccccc2C(=O)O)c2nc(N3CCOCC3)cc(=O)n2c1` [AZD-6482], the drug sensitivity score turned out to be 2.1.
On to `Cc1cc2c(F)c(Oc3ncnn4cc(OC[C@@H](C)O)c(C)c34)ccc2[nH]1` [Brivanib], for which the drug sensitivity score turned out to be 0.
For the molecule `O=C(/C=C/c1cccc(S(=O)(=O)Nc2ccccc2)c1)NO` [Belinostat], the drug sensitivity score came out at 7.2.
In the case of `COc1cc(N2CCN(C)CC2)ccc1Nc1nccc(-c2cn(C)c3cnccc23)n1` [AZ191], the drug sensitivity score is 8.1.
With `CC(=O)O[C@]1(C(C)=O)CC[C@H]2[C@@H]3C=C(C)C4=CC(=O)CC[C@]4(C)[C@H]3CC[C@@]21C` [Megestrol acetate], the drug sensitivity score is 0.
`C1=N/C2=N/c3ccc(OCCN4CCCC4)c(c3)COC/C=C/COCc3cccc(c3)C(=C1)N2` [Pacritinib] had a drug sensitivity score of 4.7.
